Assay results reported in US20250009697A1, “COMPOSITION FOR INCREASING AMOUNT OF FOOD INGESTED AND/OR IMPROVING ANOREXIA, AND COMPOSITION FOR ACTIVATING TRANSIENT RECEPTOR POTENTIAL ANKYRIN 1” (HOUSE FOODS GROUP INC., priority 2021, published 2025).

How the values were obtained:
[1] = target: T1, Human TRPM8 (hTRPM8) (Homo sapiens, UniProt Q7Z2W7); assay: TRPA1 Activation Test 2: intracellular Ca2+ imaging assay 2-2, hTRPM8 stably expressing cell line; type: cell-based; conditions: for TRPM8 activation rate: Table 9
T1 construct: expressed in transfected cells
T1 sequence (Q7Z2W7 whole entry): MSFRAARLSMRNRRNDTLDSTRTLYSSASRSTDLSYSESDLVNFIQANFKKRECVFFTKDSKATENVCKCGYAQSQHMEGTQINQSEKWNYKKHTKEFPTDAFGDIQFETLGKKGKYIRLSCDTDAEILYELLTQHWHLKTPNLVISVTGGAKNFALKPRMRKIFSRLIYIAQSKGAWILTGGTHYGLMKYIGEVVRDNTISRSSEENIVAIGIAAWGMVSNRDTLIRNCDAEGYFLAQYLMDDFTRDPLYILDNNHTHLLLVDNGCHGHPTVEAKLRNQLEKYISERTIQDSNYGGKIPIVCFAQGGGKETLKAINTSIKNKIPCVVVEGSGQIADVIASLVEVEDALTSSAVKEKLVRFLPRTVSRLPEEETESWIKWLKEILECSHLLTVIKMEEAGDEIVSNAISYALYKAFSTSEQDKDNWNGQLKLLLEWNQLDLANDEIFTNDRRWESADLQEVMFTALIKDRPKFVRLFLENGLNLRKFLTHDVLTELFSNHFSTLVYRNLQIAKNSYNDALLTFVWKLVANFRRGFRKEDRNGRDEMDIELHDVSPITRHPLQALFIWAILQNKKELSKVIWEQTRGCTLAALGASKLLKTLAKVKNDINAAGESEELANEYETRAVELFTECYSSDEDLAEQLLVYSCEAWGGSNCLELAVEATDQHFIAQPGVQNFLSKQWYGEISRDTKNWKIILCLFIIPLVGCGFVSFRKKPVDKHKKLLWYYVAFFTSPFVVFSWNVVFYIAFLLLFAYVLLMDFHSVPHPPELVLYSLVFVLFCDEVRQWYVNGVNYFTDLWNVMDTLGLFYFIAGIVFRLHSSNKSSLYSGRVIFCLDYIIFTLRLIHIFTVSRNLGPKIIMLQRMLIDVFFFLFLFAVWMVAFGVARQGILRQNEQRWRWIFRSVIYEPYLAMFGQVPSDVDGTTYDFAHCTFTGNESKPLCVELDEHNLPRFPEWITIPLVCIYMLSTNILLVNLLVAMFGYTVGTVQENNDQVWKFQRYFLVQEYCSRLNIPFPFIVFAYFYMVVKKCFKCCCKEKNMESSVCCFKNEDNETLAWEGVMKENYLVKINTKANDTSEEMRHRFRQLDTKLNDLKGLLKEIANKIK
Protocol: DNAs encoding genes described in the following Table 2 were inserted into pcDNA 5/TO vector (Invitrogen) to prepare various expression vectors.
These expression vectors were transfected into T-REx™_293 cells (Invitrogen) by a conventional method using Lipofectamine LTX (Invitrogen). Then, various transfectants were cultured and cloned by a conventional method using Dulbecco's Modified Eagle Medium (DMEM, Nacalai Tesque Inc.), containing 10% fetal bovine serum (FBS, Cytiva), […] of hygromycin B, and 5 μg/mL of blasticidin S, as a drug selection medium to obtain a hTRPA1 stably expressing cell line, a hTRPV1 stably expressing cell line, and a hTRPM8 stably expressing cell line.
A hTRPA1 stably expressing cell line in which expression of hTRPA1 had been induced in advance by a conventional method was prepared in a 96 well clear bottom plate, and the hTRPA1 activating action of rhein (produced by Tokyo Chemical Industry Co., Ltd.) was tested. Specifically, after each well was washed with PBS, 50 μL of an assay buffer (Hanks' balanced salt solution containing no calcium ion or magnesium ion that contained 1 mM of CaCl2 dihydrate, 20 mM of HEPES, and 0.1% BSA) containing calcium fluorescent indicator Calbryte™ 520 AM (produced by AAT Bioquest) in a final concentration of 4 μM was added, followed by incubating at 33° C. for 45 minutes. After washing with the assay buffer, 100 μL of the assay buffer was added to each well. […] Then, a well in which an assay buffer containing ionomycin (having a final concentration of 10 μM after the addition) instead of the test samples was added was also prepared as a reference for fluorescence intensity.
The measurement was continued from the start of the measurement up to 120 seconds, and the TRPA1 activation ability of the test samples was calculated in accordance with the following formula.
Activation rate (%)=(Fmax[s]−F0)/(Fmax[i]−F0)×100 • Fmax[s]: The maximum value of the fluorescence intensity when the test sample or positive control was added • F0: The average value of the fluorescence intensity for 20 seconds after the start of the measurement (base line) • Fmax[i]: The maximum value of the fluorescence intensity when ionomycin was added
The TRPA1 activation ability of each test sample was measured in the same manner as in the above (2) except the test was conducted with A-967079 (1 μM), which is a TRPA1-specific antagonist, or without A-967079. In addition, intracellular Ca^2+ imaging assay was conducted in the same manner as in the above (2) except that a hTRPV1 stably expressing cell line, a hTRPM8 stably expressing cell line, or a Mock cell was used instead of the hTRPA1 stably expressing cell line. […]

[2] = Anorexia Improving Test 2: cumulative amounts of food ingested of mice, rhein; type: in vivo
Protocol: Male ICR mice were housed in individual cages in which ALPHA-dri (Shepherd Specialty Papers) was laid, and were acclimatized and raised for at least one week or more while a powder feed (CE-2, CLEA Japan, Inc.) was given to the mice by using a powder feeder for mice (SN-950, Shinano Manufacturing Co., Ltd.). Then, for several days before the experiment, handling and oral administration training using a feeding needle (FG4202, Fuchigami Kikai Co., Ltd.) were conducted every day.
To 9 week-old mice under ad libitum feeding conditions, a carrier solution (containing 2% of dimethyl sulfoxide and 98% of a 0.5% methyl cellulose solution in volume ratio) or a rhein solution (obtained by dissolving 8.53 mg of rhein in 1 mL of the carrier solution) was orally administered from 9:20 a.m. (10 mL/kg body weight). […] Then, a feeder the mass of which had been measured in advance was set in the cage at 9:30 a.m. The masses of the feeder and the feed spilled in the cage 0.5, 1, 2, and 3 hours after the start of the feeding experiment were measured, and the ingested mass (g) at each time was measured (n=6).

[3] = Anorexia Improving Test 3: cumulative amounts of food ingested of mice, rhein with or without A-967079; type: in vivo; conditions: oral; for Cumulative amounts of food ingested of mice: rhein 100 μmol/kg body weight, A-967079 10 μmol/kg body weight
Protocol: Male ICR mice were housed in individual cages in which ALPHA-dri (Shepherd Specialty Papers) was laid, and were acclimatized and raised for at least one week or more while a powder feed (CE-2, CLEA Japan, Inc.) was given to the mice by using a powder feeder for mice (SN-950, Shinano Manufacturing Co., Ltd.). Then, for several days before the experiment, handling and oral administration training using a feeding needle (FG4202, Fuchigami Kikai Co., Ltd.) were conducted every day. To 9 week-old mice under ad libitum feeding conditions, a carrier solution (containing 2% of dimethyl sulfoxide and 98% of a 0.5% methyl cellulose solution in volume ratio) or a rhein solution (obtained by dissolving 8.53 mg of rhein in 1 mL of the carrier solution) was orally administered from 9:20 a.m. (10 mL/kg body weight). The dosage of rhein was 300 μmol/kg body weight in terms of molar concentration. Then, a feeder the mass of which had been measured in advance was set in the cage at 9:30 a.m. The masses of the feeder and the feed spilled in the cage 0.5, 1, 2, and 3 hours after the start of the feeding experiment were measured, and the ingested mass (g) at each time was measured (n=6). The ingested mass (g) of each mouse was measured in the same manner as in anorexia improving test 2 (the above item 5) except that 10 mL/kg body weight of a carrier solution, a rhein solution (100 μmol/kg body weight), an A-967079 solution (10 μmol/kg body weight), or a mixed solution of A-967079 and rhein (in 10 μmol/kg body weight and 100 μmol/kg body weight, respectively) was orally administered to the mouse. Results obtained by calculating the cumulative amounts of food ingested and conducting a multiple comparison (multiple t-test) by the Dunn-Bonferroni method are shown in Table 12.

- TRPM8 activation (in words) ([1]; hTRPM8 stably expressing cell line): not activated
- TRPM8 activation rate ([1]; test sample 100 μM): 2.52 ± 0.0847%
- TRPM8 activation rate ([1]; test sample 200 μM): 5.71 ± 0.118%
SMILES: O=C(O)c1cc(O)c2c(c1)C(=O)c1cccc(O)c1C2=O [Rhein, rhein]
- Cumulative amounts of food ingested of mice (in words) ([2]; 100 μmol/kg body weight, FIG. 4): significantly increased
- Cumulative amounts of food ingested of mice (in words) ([2]; oral, 300 μmol/kg body weight, 0.5 to 3 hours, FIG. 3): increased
- Cumulative amounts of food ingested of mice ([3]; 0.5 hour after the administration): 0.21 ± 0.033 g
- Cumulative amounts of food ingested of mice ([3]; 1 hour after the administration): 0.25 ± 0.027 g
- Cumulative amounts of food ingested of mice ([3]; 2 hours after the administration): 0.42 ± 0.020 g
- Cumulative amounts of food ingested of mice ([3]; 3 hours after the administration): 0.49 ± 0.035 g
- Significant increase in the cumulative amounts of food ingested where A-967079 was administered (in words) ([3]; rhein 100 μmol/kg with A-967079 10 μmol/kg): not observed
